Data published in patent publication US8865910B2 (priority 2010, dated 2014).
Like-named read-outs stand apart in the source and are kept apart here.

Test system: M. bovis BCG
Assay: microbe, parasite or virus in culture
Assay type: cell-based, Mycobacterium bovis BCG
Settings: Mycobacterium tuberculosis variant bovis BCG, BCG, 192 h
[1] = read-out: Antimycobacterial activity % inhibition at 100 μg/ml Aerobic/Active stage
[2] = read-out: Antimycobacterial activity % inhibition at 100 μg/ml Anearobic/Dormant stage

Compound	inhibition at 100 µg/mL [1]	inhibition at 100 µg/mL [2]
c1ccc(Cn2cc(CSc3ncn[nH]3)nn2)cc1 [1a]	3%	4%
Cc1n[nH]c(SCc2cn(Cc3ccccc3)nn2)n1 [1b]	10%	14%
CC(C)(C)c1n[nH]c(SCc2cn(Cc3ccccc3)nn2)n1 [1c]	3%	11%
Cc1nc(SCc2cn(Cc3ccccc3)nn2)nn1Cc1cn(Cc2ccccc2)nn1 [2b, 1-benzyl-4-((1-((1-benzyl-1H-1,2,3-triazol-4-yl)methyl)-5-methyl-1H-1,2,4-triazol-3-ylthio)methyl)-1H-1,2,3-triazole]	8%	12%
CC(C)(C)c1nc(SCc2cn(Cc3ccccc3)nn2)nn1Cc1cn(Cc2ccccc2)nn1 [2c, 1-benzyl-4-((1-((1-benzyl-1H-1,2,3-triazol-4-yl)methyl)-5-tert-butyl-1H-1,2,4-triazol-3-ylthio)methyl)-1H-1,2,3-triazole]	8%	15%
COc1ccc(-c2nc(SCc3cn(Cc4ccccc4)nn3)nn2Cc2cn(Cc3ccccc3)nn2)cc1 [2e, 1-benzyl-4-((1-((1-benzyl-1H-1,2,3-triazol-4-yl)methyl)-5-(4-methoxyphenyl)-1H-1,2,4-triazol-3-ylthio)methyl)-1H-1,2,3-triazole]	1%	8%
Clc1ccc(-c2nc(SCc3cn(Cc4ccccc4)nn3)nn2Cc2cn(Cc3ccccc3)nn2)cc1 [2f, 1-benzyl-4-((1-((1-benzyl-1H-1,2,3-triazol-4-yl)methyl)-5-(4-chlorophenyl)-1H-1,2,4-triazol-3-ylthio)methyl)-1H-1,2,3-triazole]	21%	17%
c1ccc(Cn2cc(CSc3ncnn3Cc3cn(Cc4ccccc4)nn3)nn2)cc1 [3a, 1-benzyl-4-((1-((1-benzyl-1H-1,2,3-triazol-4-yl)methyl)-1H-1,2,4-triazol-5-ylthio)methyl)-1H-1,2,3-triazole]	8%	3%
Cc1nc(SCc2cn(Cc3ccccc3)nn2)n(Cc2cn(Cc3ccccc3)nn2)n1 [3b, 1-benzyl-4-((1-((1-benzyl-1H-1,2,3-triazol-4-yl)methyl)-3-methyl-1H-1,2,4-triazol-5-ylthio)methyl)-1H-1,2,3-triazole]	85%	76%
CC(C)(C)c1nc(SCc2cn(Cc3ccccc3)nn2)n(Cc2cn(Cc3ccccc3)nn2)n1 [3c, 1-benzyl-4-((1-((1-benzyl-1H-1,2,3-triazol-4-yl)methyl)-3-tert-butyl-1H-1,2,4-triazol-5-ylthio)methyl)-1H-1,2,3-triazole]	10%	13%
O=[N+]([O-])c1ccc(-c2nc(SCc3cn(Cc4ccccc4)nn3)n(Cc3cn(Cc4ccccc4)nn3)n2)cc1 [3d, 1-benzyl-4-((1-((1-benzyl-1H-1,2,3-triazol-4-yl)methyl)-3-(4-nitrophenyl)-1H-1,2,4-triazol-5-ylthio)methyl)-1H-1,2,3-triazole]	13%	11%
COc1ccc(-c2nc(SCc3cn(Cc4ccccc4)nn3)n(Cc3cn(Cc4ccccc4)nn3)n2)cc1 [3e, 1-benzyl-4-((1-((1-benzyl-1H-1,2,3-triazol-4-yl)methyl)-3-(4-methoxyphenyl)-1H-1,2,4-triazol-5-ylthio)methyl)-1H-1,2,3-triazole]	86%	82%
Clc1ccc(-c2nc(SCc3cn(Cc4ccccc4)nn3)n(Cc3cn(Cc4ccccc4)nn3)n2)cc1 [3f, 1-benzyl-4-((1-((1-benzyl-1H-1,2,3-triazol-4-yl)methyl)-3-(4-chlorophenyl)-1H-1,2,4-triazol-5-ylthio)methyl)-1H-1,2,3-triazole]	31%	4%
C=CCSc1nc[nH]n1 [4a, 3-allylthio-1H 1,2,4 triazole]	51%	32%
C=CCSc1nc(C)n[nH]1 [4b, 3-(allylthio)-5-methyl-1H-1,2,4-triazole]	98%	97%
C=CCSc1nc(C(C)(C)C)n[nH]1 [4c, 3-(allylthio)-5-tert-butyl-1H-1,2,4-triazole]	57%	39%
C=CCSc1nc(-c2ccc([N+](=O)[O-])cc2)n[nH]1 [4d, 3-(allylthio)-5-(4-nitrophenyl)-1H-1,2,4-triazole]	25%	14%
C=CCSc1n[nH]c(-c2ccc(OC)cc2)n1 [4e, 3-(allylthio)-5-(4-methoxyphenyl)-1H-1,2,4-triazole]	94%	93%
C=CCSc1ncn(CC=C)n1 [5a, 1-allyl-3-(allylthio)-1H-1,2,4-triazole]	58%	42%
C=CCSc1nc(C)n(CC=C)n1 [5b, 1-allyl-3-(allylthio)-5-methyl-1H-1,2,4-triazole]	25%	15%
C=CCSc1nc(C(C)(C)C)n(CC=C)n1 [5c, 1-allyl-3-(allylthio)-5-tert-butyl-1H-1,2,4-triazole]	45%	36%
C=CCSc1nc(-c2ccc([N+](=O)[O-])cc2)n(CC=C)n1 [5d, 1-allyl-3-(allylthio)-5-(4-nitrophenyl)-1H-1,2,4-triazole]	15%	18%
C=CCSc1nc(-c2ccc(OC)cc2)n(CC=C)n1 [5e, 1-allyl-3-(allylthio)-5-(4-methoxyphenyl)-1H-1,2,4-triazole]	89%	84%

Compound	inhibition at 100 µg/mL [1]	inhibition at 100 µg/mL [2]
C=CCSc1nc(-c2ccc(Cl)cc2)n(CC=C)n1 [5f, 1-allyl-3-(allylthio)-5-(4-chlorophenyl)-1H-1,2,4-triazole]	94%	91%
C=CCSc1ncnn1CC=C [6a, 1-allyl-5-(allylthio)-1H-1,2,4-triazole]	65%	60%
C=CCSc1nc(C)nn1CC=C [6b, 1-allyl-5-(allylthio)-3-methyl-1H-1,2,4-triazole]	22%	10%
C=CCSc1nc(C(C)(C)C)nn1CC=C [6c, 1-allyl-5-(allylthio)-3-tert-butyl-1H-1,2,4-triazole]	30%	33%
C=CCSc1nc(-c2ccc([N+](=O)[O-])cc2)nn1CC=C [6d, 1-allyl-5-(allylthio)-3-(4-nitrophenyl)-1H-1,2,4-triazole]	40%	12%
C=CCSc1nc(-c2ccc(OC)cc2)nn1CC=C [6e, 1-allyl-5-(allylthio)-3-(4-methoxyphenyl)-1H-1,2,4-triazole]	88%	83%
C=CCSc1nc(-c2ccc(Cl)cc2)nn1CC=C [6f, 1-allyl-5-(allylthio)-3-(4-chlorophenyl)-1H-1,2,4-triazole]	26%	14%
C#CCS(=O)(=O)c1nc[nH]n1 [7a, 5-(prop-2-ynylsulfonyl)-1H-1,2,4-triazole]	42%	23%
C#CCS(=O)(=O)c1n[nH]c(C)n1 [7b, 3-methyl-5-(prop-2-ynylsulfonyl)-1H-1,2,4-triazole]	92%	82%
C#CCS(=O)(=O)c1nc(C(C)(C)C)n[nH]1 [7c, 3-tert-butyl-5-(prop-2-ynylsulfonyl)-1H-1,2,4-triazole]	76%	74%
C#CCS(=O)(=O)c1n[nH]c(-c2ccc([N+](=O)[O-])cc2)n1 [7d, 3-(4-nitrophenyl)-5-(prop-2-ynylsulfonyl)-1H-1,2,4-triazole]	96%	91%
C#CCS(=O)(=O)c1n[nH]c(-c2ccc(OC)cc2)n1 [7e, 3-(4-methoxyphenyl)-5-(prop-2-ynylsulfonyl)-1H-1,2,4-triazole]	88%	82%
C#CCS(=O)(=O)c1n[nH]c(-c2ccc(Cl)cc2)n1 [7f, 3-(4-chlorophenyl)-5-(prop-2-ynylsulfonyl)-1H-1,2,4-triazole]	88%	86%
C#CCSc1nc(C(C)(C)C)nn1CC=C [8a, 1-allyl-3-tert-butyl-5-(prop-2-ynylthio)-1H-1,2,4-triazole]	76%	74%
C#CCSc1nc(C(C)(C)C)n(CC=C)n1 [8b, 1-allyl-5-tert-butyl-3-(prop-2-ynylthio)-1H-1,2,4-triazole]	96%	91%
C#CCn1nc(C(C)(C)C)nc1SCC=C [8c, 5-(allylthio)-3-tert-butyl-1-(prop-2-ynyl)-1H-1,2,4-triazole]	98%	79%
C#CCn1nc(SCC=C)nc1C(C)(C)C [8d, 3-(allylthio)-5-tert-butyl-1-(prop-2-ynyl)-1H-1,2,4-triazole]	98%	82%
C#CCSc1ncnn1CC=C [9a, 1-allyl-5-(prop-2-ynylthio)-1H-1,2,4-triazole]	40%	22%
C#CCSc1nc(C)nn1CC=C [10a, 1-allyl-3-methyl-5-(prop-2-ynylthio)-1H-1,2,4-triazole]	98%	93%
C#CCSc1nc(C)n(CC=C)n1 [10b, 1-allyl-5-methyl-3-(prop-2ynylthio)-1H-1,2,4-triazole]	98%	92%
C#CCn1nc(Br)nc1Br [11a, 3,5-dibromo-1-(prop-2-ynyl)-1H-1,2,4-triazole]	97%	20%
C=CCn1nc(Br)nc1Br [11b, 1-allyl-3,5-dibromo-1H-1,2,4-triazole]	12%	21%
